Experimental data: PubChem BioAssay (NCI)
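Growth conditions: 96-well plates. Treatment: test compound, 48 hours, 5 concentrations. Analysis: linear interpolation between bracketing concentrations; unreached endpoints set to highest concentration. TGI: total growth inhibition.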

Tests used:
Assay in all cases: NCI anticancer screen, dose series, 48 h
[1] = test system: 786-0 renal
[2] = test system: A549 NSCLC
[3] = test system: ACHN renal
[4] = test system: BT-549 breast
[5] = test system: CAKI-1 renal
[6] = test system: CCRF-CEM leukemia
[7] = test system: COLO 205 colon
[8] = test system: DU-145 prostate
[9] = test system: EKVX NSCLC
[10] = test system: HCC-2998 colon
[11] = test system: HCT-116 colon
[12] = test system: HCT-15 colon
[13] = test system: HL-60(TB) leukemia
[14] = test system: HOP-92 NSCLC
[15] = test system: HS 578T breast
[16] = test system: IGROV1 ovarian
[17] = test system: K-562 leukemia
[18] = test system: KM12 colon
[19] = test system: LOX IMVI melanoma
[20] = test system: M14 melanoma
[21] = test system: MALME-3M melanoma
[22] = test system: MCF7 breast
[23] = test system: MDA-MB-231 breast
[24] = test system: MDA-MB-435
[25] = test system: MDA-N
[26] = test system: MOLT-4 leukemia
[27] = test system: NCI-H226 lung
[28] = test system: NCI-H460 lung
[29] = test system: NCI-H522 lung
[30] = test system: NCI/ADR-RES ovarian
[31] = test system: OVCAR-3 ovarian
[32] = test system: OVCAR-4 ovarian
[33] = test system: OVCAR-5 ovarian
[34] = test system: OVCAR-8 ovarian
[35] = test system: PC-3 prostate
[36] = test system: RPMI-8226 leukemia
[37] = test system: RXF 393 renal
[38] = test system: SF-268 CNS
[39] = test system: SF-295 CNS
[40] = test system: SF-539 CNS
[41] = test system: SK-MEL-2 melanoma
[42] = test system: SK-MEL-28 melanoma
[43] = test system: SK-MEL-5 melanoma
[44] = test system: SN12C renal
[45] = test system: SNB-19 CNS
[46] = test system: SNB-75 CNS
[47] = test system: SR leukemia
[48] = test system: SW-620 colon
[49] = test system: T-47D breast
[50] = test system: TK-10 renal
[51] = test system: U251 CNS
[52] = test system: UACC-257 melanoma
[53] = test system: UACC-62 melanoma
[54] = test system: UO-31 renal
[55] = test system: A498 renal
[56] = test system: HOP-62 NSCLC
[57] = test system: HT29 colon
[58] = test system: SK-OV-3 ovarian
[59] = test system: NCI-H23 lung

CNN1C(=O)c2c(C)c(C)c(C#N)c(N)c2C1=O
TGI [1]: > 100 µM
TGI [2]: > 100 µM
TGI [3]: > 100 µM
TGI [4]: > 100 µM
TGI [5]: > 100 µM
TGI [6]: > 100 µM
TGI [7]: > 100 µM
TGI [8]: > 100 µM
TGI [9]: > 100 µM
TGI [10]: > 100 µM
TGI [11]: > 100 µM
TGI [12]: > 100 µM
TGI [13]: > 100 µM
TGI [14]: > 100 µM
TGI [15]: > 100 µM
TGI [16]: > 100 µM
TGI [17]: > 100 µM
TGI [18]: > 100 µM
TGI [19]: > 100 µM
TGI [20]: > 100 µM
TGI [21]: > 100 µM
TGI [22]: > 100 µM
TGI [23]: > 100 µM
TGI [24]: > 100 µM
TGI [25]: > 100 µM
TGI [26]: > 100 µM
TGI [27]: > 100 µM
TGI [28]: > 100 µM
TGI [29]: > 100 µM
TGI [30]: > 100 µM
TGI [31]: > 100 µM
TGI [32]: > 100 µM
TGI [33]: > 100 µM
TGI [34]: > 100 µM
TGI [35]: > 100 µM
TGI [36]: > 100 µM
TGI [37]: > 100 µM
TGI [38]: > 100 µM
TGI [39]: > 100 µM
TGI [40]: > 100 µM
TGI [41]: > 100 µM
TGI [42]: > 100 µM
TGI [43]: > 100 µM
TGI [44]: > 100 µM
TGI [45]: > 100 µM
TGI [46]: > 100 µM
TGI [47]: > 100 µM
TGI [48]: > 100 µM
TGI [49]: > 100 µM
TGI [50]: > 100 µM
TGI [51]: > 100 µM
TGI [52]: > 100 µM
TGI [53]: > 100 µM
TGI [54]: > 100 µM

O=C(NNC(=O)c1ccccc1O)c1ccco1
TGI [1]: > 100 µM
TGI [55]: > 100 µM
TGI [2]: > 100 µM
TGI [4]: > 100 µM
TGI [5]: > 100 µM
TGI [6]: > 100 µM
TGI [7]: > 100 µM
TGI [8]: > 100 µM
TGI [9]: > 100 µM
TGI [11]: > 100 µM
TGI [12]: > 100 µM
TGI [13]: > 100 µM
TGI [56]: > 100 µM
TGI [15]: > 100 µM
TGI [57]: > 100 µM
TGI [16]: > 100 µM
TGI [17]: > 100 µM
TGI [18]: > 100 µM
TGI [19]: > 100 µM
TGI [20]: > 100 µM
TGI [21]: > 100 µM
TGI [22]: > 100 µM
TGI [23]: > 100 µM
TGI [24]: > 100 µM
TGI [25]: > 100 µM
TGI [26]: > 100 µM
TGI [27]: > 100 µM
TGI [28]: > 100 µM
TGI [29]: > 100 µM
TGI [30]: > 100 µM
TGI [31]: > 100 µM
TGI [32]: > 100 µM
TGI [33]: > 100 µM
TGI [34]: > 100 µM
TGI [35]: > 100 µM
TGI [36]: > 100 µM
TGI [37]: > 100 µM
TGI [38]: > 100 µM
TGI [39]: > 100 µM
TGI [40]: > 100 µM
TGI [41]: > 100 µM
TGI [42]: > 100 µM
TGI [43]: > 100 µM
TGI [58]: > 100 µM
TGI [44]: > 100 µM
TGI [45]: > 100 µM
TGI [46]: > 100 µM
TGI [47]: > 100 µM
TGI [48]: > 100 µM
TGI [49]: > 100 µM
TGI [50]: > 100 µM
TGI [51]: > 100 µM
TGI [52]: > 100 µM
TGI [53]: > 100 µM
TGI [54]: > 100 µM

c1cc2c(c(NC3=NCCN3)c1)CCCC2
TGI [1]: > 100 µM
TGI [55]: > 100 µM
TGI [2]: > 100 µM
TGI [3]: > 100 µM
TGI [4]: > 100 µM
TGI [5]: > 100 µM
TGI [6]: > 100 µM
TGI [7]: > 100 µM
TGI [8]: > 100 µM
TGI [9]: > 100 µM
TGI [11]: > 100 µM
TGI [12]: > 100 µM
TGI [13]: > 100 µM
TGI [56]: > 100 µM
TGI [14]: > 100 µM
TGI [15]: > 100 µM
TGI [57]: > 100 µM
TGI [16]: > 100 µM
TGI [17]: > 100 µM
TGI [18]: > 100 µM
TGI [19]: > 100 µM
TGI [20]: > 100 µM
TGI [21]: > 100 µM
TGI [22]: > 100 µM
TGI [23]: > 100 µM
TGI [24]: > 100 µM
TGI [25]: > 100 µM
TGI [26]: > 100 µM
TGI [27]: > 100 µM
TGI [59]: > 100 µM
TGI [28]: > 100 µM
TGI [29]: > 100 µM
TGI [30]: > 100 µM
TGI [31]: > 100 µM
TGI [32]: > 100 µM
TGI [33]: > 100 µM
TGI [34]: > 100 µM
TGI [35]: > 100 µM
TGI [36]: > 100 µM
TGI [37]: > 100 µM
TGI [38]: > 100 µM
TGI [39]: > 100 µM
TGI [40]: > 100 µM
TGI [41]: > 100 µM
TGI [42]: > 100 µM
TGI [43]: > 100 µM
TGI [58]: > 100 µM
TGI [44]: > 100 µM
TGI [45]: > 100 µM
TGI [46]: > 100 µM
TGI [47]: > 100 µM
TGI [48]: > 100 µM
TGI [49]: > 100 µM
TGI [50]: > 100 µM
TGI [51]: > 100 µM
TGI [52]: > 100 µM
TGI [53]: > 100 µM

COCCOC1=C(Cl)C(=O)c2c(O)ccc(O)c2C1=O
TGI [1]: 3.23 µM
TGI [55]: 22.2 µM
TGI [2]: 28.5 µM
TGI [3]: 2.96 µM
TGI [4]: 5.44 µM
TGI [5]: 1.11 µM
TGI [7]: 2.34 µM
TGI [8]: 13.2 µM
TGI [9]: 11.5 µM
TGI [10]: 15.6 µM
TGI [11]: 2.6 µM
TGI [12]: 3.32 µM
TGI [56]: 9.94 µM
TGI [14]: 2.2 µM
TGI [15]: 8.34 µM
TGI [57]: 7.7 µM
TGI [16]: 6.27 µM
TGI [18]: 26.8 µM
TGI [19]: 3.28 µM
TGI [20]: 3.22 µM
TGI [21]: 2.17 µM
TGI [22]: 3.04 µM
TGI [23]: 3.2 µM
TGI [24]: 2.23 µM
TGI [25]: 3.03 µM
TGI [26]: 0.481 µM
TGI [27]: 28.9 µM
TGI [59]: 9.54 µM
TGI [28]: 17.2 µM
TGI [29]: 1.67 µM
TGI [30]: 8.5 µM
TGI [31]: 3.08 µM
TGI [32]: 4.34 µM
TGI [33]: 13.7 µM
TGI [34]: 6.66 µM
TGI [35]: 13 µM
TGI [36]: 1.75 µM
TGI [37]: 1.7 µM
TGI [38]: 13 µM
TGI [39]: 35.1 µM
TGI [40]: 5.46 µM
TGI [41]: 14.5 µM
TGI [42]: 5.07 µM
TGI [43]: 5.15 µM
TGI [58]: 30.7 µM
TGI [44]: 4.04 µM
TGI [45]: 29.2 µM
TGI [46]: 13.9 µM
TGI [47]: 3.19 µM
TGI [48]: 1.4 µM
TGI [49]: 6.61 µM
TGI [50]: 3.24 µM
TGI [51]: 12.1 µM
TGI [52]: 4.85 µM
TGI [53]: 10.7 µM
TGI [54]: 3.83 µM
